Results on 52 compounds are retold here after ChEMBL document CHEMBL1156829 (Proc Natl Acad Sci U S A, 2008).

Structures are written as SMILES. A value given as a limit tells only on which side of the number the result lay.

The subject of series [1] is Plasmodium falciparum. Description: NOVARTIS: Inhibition of Plasmodium falciparum 3D7 (drug-susceptible) proliferation in erythrocyte-based infection assay. The series is classed as functional, organism-based. The conditions noted are these: Plasmodium falciparum, 3D7.
Series [2] deals with Plasmodium falciparum. Description: NOVARTIS: Inhibition of Plasmodium falciparum W2 (drug-resistant) proliferation in erythrocyte-based infection assay. The series is classed as functional, organism-based. Particulars: Plasmodium falciparum, W2; read-out: EC50.
Series [3] is described as follows: NOVARTIS: Cytotoxicity against human hepatocellular carcinoma cell line (Huh7). Particulars: Huh7 cells (hepatocellular carcinoma cell line). The class given is toxicity, cell-based, Huh-7.

Regarding `COc1ccc(C2=C(c3ccc(OC)cc3)C3(c4ccccc4)C(=O)C2(c2ccccc2)C2C(=O)N(c4ccccc4)C(=O)C23)cc1` (stereo unspecified), the concentration giving a half-maximal response (EC50) in series [1] is 1400 nM; in series [2] it was more than 1130 nM. Moreover, the CC50 in series [3] was more than 10000 nM.
Consider `CC1CC2CCC(O2)C(C)C(=O)O[C@H](C)CC2CCC(O2)C(C)C(=O)OC(C)CC2CCC(O2)C(C)C(=O)O[C@H](C)CC2CCC(O2)C(C)C(=O)O1` (stereo partly specified), for which the concentration for a half-maximal effect (EC50) in series [1] stood at 645 nM; in series [2], 699 nM. The compound further registered a CC50 in series [3] of more than 6250 nM.
The like results for `Cc1ccc(CC(=O)Nc2ccc(I)cc2)cc1` were, in that order, more than 11200 nM, more than 11200 nM and more than 100000 nM.
Regarding `c1ccc(CSc2nc3ccncc3[nH]2)cc1`, the EC50 in series [1] is more than 1250 nM; in series [2] it was more than 1150 nM. The compound further had a CC50 in series [3] of more than 10000 nM.
As to `CCN1CCCC1CNC(=O)CN1N=C(c2ccccc2)Cn2c(cc3ccccc32)C1=O` (stereo unspecified), the EC50 in series [1] is more than 1250 nM; in series [2], more than 1130 nM. This compound also came in with a CC50 in series [3] of more than 10000 nM.
In the same order, the values of `COc1ccc(CC(=O)Nc2sc3c(c2C(=O)Nc2cccc4ccccc24)CCCC3)cc1` are more than 1250 nM, 1130 nM and more than 10000 nM.
In the same order, the values of `CCC(C)(C)c1ccc(Oc2ccc(NC(=O)c3ccc([N+](=O)[O-])o3)cc2)cc1` are 7670 nM, 6510 nM and 57600 nM.
The like results for `COc1ccc(-n2nc(C(=O)NCC(=O)Nc3nc4ccccc4s3)c3ccccc3c2=O)cc1Cl` were, in that order, more than 1250 nM, more than 1130 nM and more than 10000 nM.
For the compound `Cc1cc(C)nc(SCc2cc(=O)c(OC(=O)c3ccccc3Br)co2)n1`, the EC50 in series [1] and in series [2] was more than 11200 nM throughout. In series [3], the CC50 is more than 100000 nM.
Turning to `O=C(NN=Cc1ccc(O)c(O)c1)/C(=C/c1ccccc1)NC(=O)c1ccccc1`, the EC50 is more than 1250 nM in series [1] and more than 1110 nM in series [2]. The same compound had a CC50 in series [3] of more than 10000 nM.
The like results for `C[n+]1c(C=Cc2ccc(F)cc2)ccc2ccccc21` were, in that order, 8110 nM, 11100 nM and more than 100000 nM.
The like results for `O=C(NNC(=O)c1cccc(F)c1)C(=O)N1CCOCC1` were, in that order, more than 1250 nM, more than 1110 nM and more than 10000 nM.
The like results for `c1ccc(-c2cc(N3CCc4ccccc4C3)nc(-c3ccccn3)n2)nc1` were, in that order, 251 nM, 1110 nM and more than 10000 nM.
`COc1ccc(C2c3[nH]c4ccccc4c3C[C@@H]3C(=O)N(CCC(C)C)CC(=O)N23)cc1` (stereo partly specified): the EC50 in series [1] is more than 1250 nM; in series [2], 1110 nM. In series [3], this compound registered a CC50 of more than 10000 nM.
For `C/C=C/C(C(=O)NCCCC)N1C(=O)c2cc(NC(C)=O)ccc2NC(=O)[C@@H]1CCC(=O)O` (stereo partly specified), the figures for the EC50 in series [1] and in series [2] were more than 1500 nM and 49.9 nM, respectively. The compound also yielded a cytotoxic concentration (CC50) in series [3] of 442 nM.
In the same order, the values of `Cc1ccc2cc3cc(C(=O)NC(C)C)sc3nc2c1` are 989 nM, 1120 nM and more than 10000 nM.
The like results for `COc1ccc(-c2cn(-c3ccc(OC)cc3)c(SCC(=O)Nc3ccccc3)n2)cc1` were, in that order, more than 11200 nM, more than 11200 nM and more than 100000 nM.
The like results for `COC(=O)c1ccccc1NC(=O)CSc1nc2ccsc2c(=O)n1CCN1CCCC1` were, in that order, more than 11200 nM, more than 11200 nM and more than 100000 nM.
Take `COc1ccc(OC)c(NC(=O)CSc2nc(NCc3ccc(Cl)cc3)c3ccccc3n2)c1`: the EC50 in series [1] and in series [2] was more than 11200 nM throughout. This compound also showed a CC50 in series [3] of more than 100000 nM.
For the compound `COc1ccc(/C=C/C(=O)NC(=O)c2ccccc2O)cc1OC`, the EC50 stood at 1080 nM in series [1] and 1130 nM in series [2]. The CC50 in series [3] is more than 10000 nM.
The like results for `CCCCn1c(NN=C2C(=O)Nc3ccccc32)nc2c1c(=O)[nH]c(=O)n2C` were, in that order, 1600 nM, 1130 nM and more than 10000 nM.
The like results for `c1ccc(Cc2nc(NCc3ccc4c(c3)OCO4)c3c4c(sc3n2)CCCC4)cc1` were, in that order, more than 1250 nM, more than 1130 nM and more than 10000 nM.
In the same order, the values of `CCCCCCn1c2c(c(=N)c3ccccc31)CCC2` are 681 nM, more than 1120 nM and more than 10000 nM.
On to `O=C(COc1ccc(-c2ncccn2)cc1CN1CCCCCC1)NCc1ccccc1C(F)(F)F`, for which the EC50 in series [1] was more than 1250 nM; in series [2] it was more than 1150 nM. This compound also yielded a CC50 in series [3] of more than 10000 nM.
Take `Cc1c(Cl)cccc1NC(=O)c1cccnc1Cl`: the EC50 in series [1] was more than 1250 nM; in series [2], more than 1140 nM. In addition, the CC50 in series [3] was more than 10000 nM.
The like results for `Cc1cc(C)c(CSC(=N)N)c(C)c1CSC(=N)N` were, in that order, 1120 nM, more than 1140 nM and more than 10000 nM.
For `CCC(c1nc2ccccc2c(=O)n1-c1ccc(F)cc1)N(CCc1ccccc1)C(=O)COc1ccccc1` (stereo unspecified), the 50% effective concentration (EC50) in series [1] came out at 1030 nM; in series [2], 1140 nM. In series [3], this compound showed a CC50 of more than 10000 nM.
Consider `CCC(=O)c1c(C)n(-c2ccc(Br)cc2)c2ccc(O)cc12`, for which the EC50 in series [1] was more than 769 nM; in series [2], 1140 nM. This compound gave a CC50 in series [3] of more than 10000 nM.
Regarding `COc1ccc(Br)cc1S(=O)(=O)N1CCCc2ccccc21`, the figures for the EC50 in series [1] and in series [2] were 9950 nM and 11400 nM, respectively. This compound gave a CC50 in series [3] of more than 100000 nM.
On to `COC(=O)c1c(-c2c(Cl)cccc2Cl)noc1C=CNc1ccccc1`, for which the EC50 was more than 12500 nM in series [1] and 8790 nM in series [2]. This compound also yielded a CC50 in series [3] of 76800 nM.
Consider `Cc1ccc(C(=O)C(C)[n+]2ccc(N(C)C)cc2)cc1` (stereo unspecified), for which the concentration giving a half-maximal response (EC50) in series [1] is 438 nM; in series [2], 4040 nM. Moreover, the CC50 in series [3] amounted to 35300 nM.
On to `COc1ccc(NC(=O)/C=C/c2ccccc2Cl)cc1`, for which the EC50 in series [1] was more than 1250 nM; in series [2] it was more than 1140 nM. This compound also had a CC50 in series [3] of more than 10000 nM.
The like results for `CCCCCCN(C(=O)COc1ccc(Cl)cc1)C(CC)c1nc2ccccc2c(=O)n1-c1cccc(Cl)c1` (stereo unspecified) were, in that order, 433 nM, 1140 nM and more than 10000 nM.
In the same order, the values of `COC(=O)C1=C(C(=O)OC)SC(=C2C(=S)C(C)(C)N(C(=O)c3ccc([N+](=O)[O-])cc3)c3ccc(C)cc32)S1` are more than 371 nM, more than 1150 nM and more than 10000 nM.
In the same order, the values of `CC(C)CNC(=O)c1cnc(NCCC2CCCN2C)nc1NC1CCCC1` (stereo unspecified) are 908 nM, 1140 nM and more than 10000 nM.
In the case of `CCCCCCN(C(=O)c1ccc2ccccc2c1)C(CC)c1nc2ccccc2c(=O)n1-c1cccc(Cl)c1` (stereo unspecified), the half-maximal effective concentration (EC50) is more than 1250 nM in series [1] and more than 1130 nM in series [2]. This compound also registered a CC50 in series [3] of more than 10000 nM.
In the same order, the values of `COC(=O)C1CCCCN1S(=O)(=O)c1ccc(C)cc1` (stereo unspecified) are more than 1250 nM, more than 1120 nM and more than 10000 nM.
Take `Cc1c(C)c(C)c(CNC(=S)NN)c(C)c1C`: the EC50 in series [1] was 4090 nM; in series [2], more than 11400 nM. The same compound came in with a CC50 in series [3] of more than 100000 nM.
The like results for `CCCN(CC1CC1)C(=O)C1CCCN(c2cccc3c2C(=O)N(Cc2cc(OC)c(OC)c(OC)c2)C3=O)C1` (stereo unspecified) were, in that order, more than 1250 nM, 1120 nM and more than 10000 nM.
With `O=C1N(c2ccccc2)C[C@@H]2C[C@@H](c3ccc4nonc4c3)N3CCC[C@@]123`, the figures for the EC50 in series [1] and in series [2] were 2370 nM and 2500 nM, respectively. Moreover, the CC50 in series [3] was more than 22100 nM.
In the same order, the values of `COc1cc(OC)cc(C(=O)N2CCN(c3ccccn3)CC2)c1` are more than 1250 nM, more than 1130 nM and more than 10000 nM.
The like results for `COc1ccc(OC)c(NC(=O)c2cnn3c(C(F)(F)F)cc(-c4ccc(OC)c(OC)c4)nc23)c1` were, in that order, more than 1250 nM, 1140 nM and more than 10000 nM.
In the same order, the values of `COc1ccc(N2CCN(C(=O)C3=C(C)C(=O)OC34CCCCC4)CC2)cc1` are 1620 nM, more than 1130 nM and more than 10000 nM.
Take `CCCCCCN(CCCCCC)CC(O)c1cc(-c2ccc(Cl)cc2)nc2c(C)cc(C)cc12` (stereo unspecified): the EC50 in series [1] was 7130 nM; in series [2], 5940 nM. In series [3], this compound returned a CC50 of 51900 nM.
The like results for `CC(=O)Nc1ccc(-c2nc(-c3ccc(Oc4ccc(-c5[nH]c(-c6ccc(NC(C)=O)cc6)nc5-c5ccccc5)cc4)cc3)c(-c3ccccc3)[nH]2)cc1` were, in that order, 6950 nM, 5590 nM and 50100 nM.
The like results for `CCOc1ccc(NC(=O)N(CCC(C)C)C(C)c2nc3ccccc3c(=O)n2-c2cccc(Cl)c2C)cc1` (stereo unspecified) were, in that order, 1200 nM, 1140 nM and more than 10000 nM.
In the same order, the values of `O=C(CCCc1nc(-c2ccccc2)no1)NCc1cccnc1` are more than 1770 nM, 1130 nM and more than 10000 nM.
On to `CCOC(=O)c1c(NC(=O)CCC(=O)OC)sc2c1CC(C)(C)SC2`, for which the 50% effective concentration (EC50) in series [1] was more than 650 nM; in series [2] it was more than 1110 nM. Also, the CC50 in series [3] was more than 10000 nM.
The like results for `Cc1ccc(S(=O)(=O)N=C(NS(=O)(=O)c2ccc(C)cc2)c2ccccc2)cc1` were, in that order, more than 11200 nM, more than 11200 nM and more than 100000 nM.
As to `O=C(O)c1ccc(NC(=O)c2ccc(N3C(=O)C4C5C=CC(C5)C4C3=O)cc2)cc1` (stereo unspecified), the EC50 in series [1] and in series [2] was more than 11200 nM throughout. This compound also showed a 50% cytotoxic concentration (CC50) in series [3] of more than 100000 nM.
`N#CC1=C(N)Oc2c3c(c4ccccc4c2C1c1ccc(F)cc1)C(c1ccc(F)cc1)C(C#N)=C(N)O3` (stereo unspecified): the EC50 was 4090 nM in series [1] and 2440 nM in series [2]. The compound further registered a CC50 in series [3] of 21600 nM.
The like results for `CC(=O)Nc1ccc2c(c1)C(=O)N(C(C(=O)NC1CCCCC1)c1ccc([N+](=O)[O-])cc1)[C@@H](c1ccccc1)C(=O)N2` (stereo partly specified) were, in that order, more than 1250 nM, more than 873 nM and 7680 nM.
